Entries after “also recorded” stand apart in the source; their conditions may differ.
How the values were obtained:
EAE = details: cited from earlier work
activated T cells = details: Singh et al., 2007; cited from earlier work
FasL = FasL expression by FACS analysis in PBMCs from a stable MS patient after sirtinol; format: cell-based, human; details: sirtinol 200 μM
Procedure: FIGS. 8A-8D. Effect of SIRT 1 inhibition on FasL expression. PBMCs from a stable MS patient (FIG. 8A, FIG. 8C) were pretreated with the SIRT1 inhibitor sirtinol (200 μM) for 24 h (FIG. 8B, FIG. 8D), cultured with CD4^+ (FIG. 8B) or CD8^+ (FIG. 8D) T cells, and expression of FasL was then determined by FACS analysis.

[1] = system: CD8+ T cells from an MS patient; assay: Annexin V-FITC binding (early apoptosis) by FACS, CD8+ T cells from an MS patient; format: cell-based, human; details: sirtinol 200 μM, 24 h
Procedure: (§1) PBMCs and Jurkat cells were plated in RPMI-10% FBS in 12-well plates 24 h prior to Annexin V FITC FACS analysis. Some of the cells were treated with sirtinol (200 μM) and the binding of Annexin V-FITC to cells was compared with that of cells exposed to vehicle (DMSO) only. Annexin V assay was performed according to manufacturer instructions (BD Biosciences) and only Annexin V FITC positive, propidium iodide negative cells were used in the evaluations since they are reflecting early apoptosis.

[2] = system: CD4+ T cells from an MS patient; assay: Annexin V-FITC binding (early apoptosis) by FACS, CD4+ T cells from an MS patient; format: cell-based, human; details: sirtinol 200 μM, 24 h
Procedure: as §1

Jurkat cells = assay: Annexin V-FITC binding (early apoptosis) by FACS, Jurkat cells; format: cell-based; details: sirtinol 200 μM, 24 h
Procedure: as §1

SIRT1 mRNA = SIRT1 mRNA expression in PBMCs from stable MS patients after sirtinol; format: cell-based, human; details: sirtinol 200 μM, data not shown
RRMS = assay: Clinical response to glatiramer acetate in RRMS patients over 2 years; format: in vivo, human; details: 15 RRMS patients, 20 mg subcutaneously every day for 2 years
From the text: A total of 15 patients with RRMS were enrolled in the study. The patients were recruited from the University of Maryland Multiple Sclerosis Center. The mean age was 40 (range, 22-60), and consisted of 60% females (n=9) and 40% males (n=6). The criteria for inclusion of MS patients in the study were: (i) age 18 to 65 years; (ii) fulfillment of the McDonald criteria for definite MS (McDonald et al., 2001; Polman et al., 2005); (iii) relapsing-remitting course; (iv) having newly diagnosed MS, or MS not treated with currently used immunomodulatory drugs (interferon-β or glatiramer acetate) for 3 months prior to study entry; (v) no exacerbations in the 4 weeks before the study; (vi) no i.v. or p.o. steroids for 4 weeks prior to study enrollment; (vii) no treatment with Tysabri, Gilenya, mitoxantrone, cyclophosphamide, or any investigational drug during the past year; and (viii) a disability score of 0-5.5, as defined by the expanded disability status scale (EDSS) (Kurtzke, 1983). […]
All MS patients received 20 mg of glatiramer acetate (GA) injected subcutaneously every day for 2 years. During this period of 2 years, patients were clinically evaluated and peripheral blood samples were collected at 0, 3, 6, and 12 months at the time of their outpatient visits. […]

Oc1ccc(C=Cc2cc(O)cc(O)c2)cc1 [resveratrol]
disease course in EAE (EAE; Nimmagadda et al., 2013): ameliorates the disease course
spinal cord inflammation during EAE (EAE; Singh et al., 2007): decrease in spinal cord inflammation
apoptosis in activated T cells (activated T cells): trigger apoptosis

CC(NC(=O)c1ccccc1/N=C/c1c(O)ccc2ccccc12)c1ccccc1 (stereo not drawn) [sirtinol]
FasL expression (FasL; CD4+ T cells, 24 h): significant increase
FasL expression (FasL; CD8+ T cells, 24 h): significant increase
FasL expression (FasL; PBMCs from stable MS patients): significantly increased
Annexin V binding / apoptosis, in words ([1]; CD8+ T cells from an MS patient): significant apoptosis; also recorded: significant increase in Annexin V binding
apoptosis (Annexin V binding) ([1]; CD8 cells, control cells 22%): 81%
Annexin V binding / apoptosis, in words ([2]; CD4+ T cells from an MS patient): significant apoptosis; also recorded: significant increase in Annexin V binding
apoptosis (Annexin V binding) ([2]; CD4 cells, control cells 6%): 55%
Annexin V binding / apoptosis, in words (Jurkat cells): significant apoptosis; also recorded: significant increase in Annexin V binding
cells binding Annexin V (Jurkat cells; vehicle DMSO control 6%): 65%
inhibition of the expression of SIRT1 mRNA (SIRT1 mRNA): 50%

glatiramer acetate [GA]
non-responders (2 or more relapse events during the 2 year span) (RRMS): 4
responders (0 or no more than 1 relapse event during the 2 year span) (RRMS): 11
